Values joined by “and” are separate entries in the source; they are usually repeats but may differ in a detail not shown here. Identical values can stand only once. Like-named read-outs stand apart in the source and are kept apart here.
Experiments:
[1] = system: IRF7 5'UTR firefly luciferase reporter in HEK293T cells; conditions: for Reference vs IRF7 (Final data, Fig. 1E): 1/Result, relative to DMSO; for LONG (summary - All), normalized to DMSO: Long reporter; for LONG (summary - All), normalized to DMSO / SHORT (summary - All), normalized to DMSO: individual replicates, outliers excluded, DMSO = 1; for Long 5'UTR reporter luciferase activity, normalized to DMSO (=1), single replicates: left data block (Long), source data of Fig 1C; for average ( long vs short ratio): summary - All;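 on all read-outs here: luciferase signal corrected by a co-transfected GFP reporter for transfection efficiency, read after overnight compound exposure, with Long and Short reporters differing in 5'UTR length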
eIF1A = target: T1, eIF1A (Homo sapiens, UniProt P47813); assay type: binding; conditions: for fluorescence ratio, eIF1A: background-corrected, relative to DMSO or lowest 1Ai concentration, replicate columns; for WT eIF1A IC50: fluorescence binding
T1 construct: His-bdSUMO (cleaved yes); made in house; host or cells: E. coli BL-21
T1 sequence (P47813 whole entry): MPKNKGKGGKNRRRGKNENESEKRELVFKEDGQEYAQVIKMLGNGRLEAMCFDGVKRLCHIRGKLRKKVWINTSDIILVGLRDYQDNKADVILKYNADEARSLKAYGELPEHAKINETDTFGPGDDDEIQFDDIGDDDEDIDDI

RPS10 = target: T2, RPS10 (Homo sapiens, UniProt P46783); assay type: binding; conditions: for RPS10 IC50: fluorescence binding
T2 construct: made in house; host or cells: E. coli BL-21

[2] = system: CUG/GUG vs AUG start codon luciferase reporters in HEK293T cells; assay: Near-cognate AUG starting codon fidelity reporter assay (GUG, CUG vs AUG); assay type: cell-based; conditions: for average CUG and GUG / average CUG and GUG relative to DMSO / CUG Average / GUG Average: NUG experiment; for CUG Average: CUG vs AUG reporter; for GUG Average: GUG vs AUG reporter; for NUG (Final data, Fig. 1E): average CUG and GUG relative to DMSO, 20 µM overnight; for GUG vs AUG data (%): individual repeat; for GUG vs AUG (%) Average: summary average of repeats, DMSO control average […]; for CUG vs AUG (%): CUG start codon reporter relative to AUG reporter (AUG = 100); for CUG vs AUG (%) / GUG vs AUG (%): single-experiment calculation; for GUG vs AUG (%): GUG start codon reporter relative to AUG reporter (AUG = 100)
[3] = system: cap-proximal AUG GFP reporter in HEK293T cells; assay type: cell-based; conditions: GFP WB densitometry; 20 µM overnight; dmso 0.965946;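 further: ratio of upstream to downstream AUG initiation products on GFP Western blot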
[4] = summary table, fluorescence binding assay
[5] = compound at 10uM (summary head)

| SMILES | Reference vs IRF7 (Final data, Fig. 1E) ([1]; 20 µM) | fluorescence ratio, eIF1A (eIF1A; 1Ai conc. 0.25 uM) | fluorescence ratio, eIF1A (eIF1A; 1Ai conc. 0.5 uM) | fluorescence ratio, eIF1A (eIF1A; 1Ai conc. 1 uM) | fluorescence ratio, eIF1A (eIF1A; 1Ai conc. 2 uM) | fluorescence ratio, eIF1A (eIF1A; 1Ai conc. 4 uM) | fluorescence ratio, eIF1A (eIF1A; 1Ai conc. 8 uM) | fluorescence ratio, eIF1A (eIF1A; 1Ai conc. 16 uM) | fluorescence ratio, eIF1A (eIF1A; 1Ai conc. 32 uM) | fluorescence ratio, eIF1A (eIF1A; 1Ai conc. 64 uM) | RPS10 fluorescence ratio to control (RPS10; 1Ai conc. 0.25 uM) | RPS10 fluorescence ratio to control (RPS10; 1Ai conc. 0.5 uM) | RPS10 fluorescence ratio to control (RPS10; 1Ai conc. 1 uM) | RPS10 fluorescence ratio to control (RPS10; 1Ai conc. 2 uM) | RPS10 fluorescence ratio to control (RPS10; 1Ai conc. 4 uM) | RPS10 fluorescence ratio to control (RPS10; 1Ai conc. 8 uM) | RPS10 fluorescence ratio to control (RPS10; 1Ai conc. 16 uM) | RPS10 fluorescence ratio to control (RPS10; 1Ai conc. 32 uM) | RPS10 fluorescence ratio to control (RPS10; 1Ai conc. 256 uM) | average CUG and GUG [2] | further results |
| --- | --- | --- | --- | --- | --- | --- | --- | --- | --- | --- | --- | --- | --- | --- | --- | --- | --- | --- | --- | --- | --- |
| CCOc1cc(C(=O)Nc2ccc(Cl)c(-c3nc4ccccc4[nH]3)c2)cc(OCC)c1OCC [1Ai-5677] | 1.223 | 0.8378 and 0.9597 | 0.7937 and 0.9656 | 0.9644 and 1.01 | 1.084 and 0.9877 | 1.028 and 1.008 | 0.9744 and 0.9518 | 1.11 and 0.9262 | 1.565 and 1.017 | 1.663 and 1.113 | 1.185 | 1.207 | 1.132 | 1.142 | 1.154 | 1.116 | 1.16 | 1.234 | 1.29 | 7.022 | LONG (summary - All), normalized to DMSO ([1]; 20 µM): 0.42 and 0.28 and 0.29 and 0.61; SHORT (summary - All), normalized to DMSO ([1]; Short reporter, 20 µM): 0.22 and 0.81 and 0.72 and 0.21; Long 5'UTR reporter luciferase activity, normalized to DMSO (=1), single replicates ([1]; compound at 20 µM): 0.4235 and 0.2817 and 0.2949 and 0.6069; average ( long vs short ratio) ([1]; 20 µM): 0.817; fluorescence ratio, eIF1A (eIF1A; 1Ai conc. 256 uM): 1.623 and 1.122; IC50 (eIF1A; summary table, fluorescence binding assay, read-out: IC50 concentration (µM), WT eIF1A): 24.8 µM; RPS10 fluorescence ratio to control (RPS10; 1Ai conc. 64 uM): 1.307; RPS10 IC50 (RPS10): No binding; IC50 concentration (µM), RPS10 (RPS10; [4]): No binding; average CUG and GUG relative to DMSO [2]: 1.557; CUG Average [2]: 10.2182; GUG Average [2]: 3.825; NUG (Final data, Fig. 1E) [2]: 1.557; GUG vs AUG data (%) ([2]; compound at 20uM): 5.33% and 3.23% and 3.12% and 3.62%; GUG vs AUG (%) Average ([2]; compound at 20uM): 3.82%; US/DS ratio, average [3]: 0.4981 |
| O=c1cc(CN2CCOCC2)occ1OCCCCCSc1ccnc2cc(C(F)(F)F)ccc12 [1Ai-5730] | 1.720 | 1.04 and 0.9394 | 1.062 and 0.9801 | 1.0621 and 0.9646 | 1.055 and 0.9796 | 1.077 and 1.03 | 0.8919 and 0.9326 | 0.9465 and 0.9064 | 0.9379 and 0.8516 | 0.7437 and 0.7726 | 1 | 0.9752 | 0.9984 | 0.9868 | 1.11 | 1.2215 | 1.217 | 1.212 | 1.367 | 3.9567 | LONG (summary - All), normalized to DMSO ([1]; 10 µM): 0.65 and 0.52 and 0.40 and 0.70; SHORT (summary - All), normalized to DMSO ([1]; Short reporter, 10 µM): 0.89 and 1.17 and 0.87; Long 5'UTR reporter luciferase activity, normalized to DMSO (=1), single replicates ([1]; compound at 10 µM): 0.6956; Short: Normalized to average DMSO ([1]; data section, Short reporter, GFP-corrected, 10 µM, per experiment): 0.892 and 1.021 and 1.1679; average ( long vs short ratio) ([1]; 10 µM): 0.581; WT eIF1A IC50 (eIF1A): No binding; IC50 concentration (µM), WT eIF1A (eIF1A; [4]): No binding; IC50 (RPS10; read-out: IC50 (line under RPS10 binding data)): 22.1 µM; IC50 (RPS10; read-out: RPS10 IC50): 22.1 µM; IC50 (RPS10; summary table, fluorescence binding assay, read-out: IC50 concentration (µM), RPS10): 22.1 µM; CUG vs AUG (%) [2, 5]: 9.994%; GUG vs AUG (%) [2, 5]: 3.756%; average CUG and GUG relative to DMSO [2]: 0.8773; CUG Average [2]: 6.145; GUG Average [2]: 1.768; NUG (Final data, Fig. 1E) [2]: 0.877; GUG vs AUG data (%) ([2]; compound at 10uM): 1.66% and 2.32% and 1.73% and 1.38%; GUG vs AUG (%) Average ([2]; compound at 10uM): 1.77%; US/DS ratio, average [3]: 0.4467 |
| Oc1cc(Cl)ccc1Oc1ccc(Cl)cc1Cl [1Ai-6248] | 2.307 | 0.9384 and 1.064 | 0.9722 and 1.055 | 1.006 and 1.027 | 0.9417 and 1.0128 | 0.9205 and 0.9547 | 0.8204 and 0.8224 | 0.7985 and 0.7888 | 0.7283 and 0.6891 | 0.6123 and 0.5776 | 1.015 | 0.9639 | 0.9786 | 0.9545 | 0.9327 | 0.7864 | 0.7439 | 0.7362 | 1.057 | 4.51 | LONG (summary - All), normalized to DMSO ([1]; 5 µM): 0.82 and 0.51 and 0.33 and 0.43; SHORT (summary - All), normalized to DMSO ([1]; Short reporter, 5 µM): 0.71 and 0.90 and 0.20; average ( long vs short ratio) ([1]; 5 µM): 0.861; fluorescence ratio, eIF1A (eIF1A; 1Ai conc. 256 uM): 0.937 and 1.038; WT eIF1A IC50 (eIF1A): No binding; IC50 concentration (µM), WT eIF1A (eIF1A; [4]): No binding; RPS10 fluorescence ratio to control (RPS10; 1Ai conc. 64 uM): 0.7781; RPS10 IC50 (RPS10): No binding; IC50 concentration (µM), RPS10 (RPS10; [4]): No binding; CUG vs AUG (%) ([2]; compound at 5uM (summary head)): 9.031% and 6.716%; GUG vs AUG (%) ([2]; compound at 5uM (summary head)): 1.808% and 1.909%; average CUG and GUG relative to DMSO [2]: 1; CUG Average [2]: 7.441; GUG Average [2]: 1.579; NUG (Final data, Fig. 1E) [2]: 1.000; GUG vs AUG data (%) ([2]; compound at 5uM): 1.28% and 2.36% and 1.32% and 1.37%; GUG vs AUG (%) Average ([2]; compound at 5uM): 1.58%; US/DS ratio, average [3]: 1.042 |
